# Laboratory results from patent US10463644B2, “Uses of sesquiterpene lactone compounds and their derivatives in drugs preparation” (ACCENDATECH, priority 2013, dated 2019).
# How the values were obtained:
# [1] = test system: IL-1β secreted by synoviocyte; assay: Content of IL-1β in culture supernatant of synoviocyte of RA model rats given test compound; type: in vivo; conditions: rat RA model, dose 30 mg/kg.2d; normal control 0.16 ± 0.034, NaCl 0.49 ± 0.136
# Source text: (§1) Take Compound 1-50 prepared as per the method according to the present invention and employ the method provided in Reference to prepare model, group drugs and prepare culture supernatant of rat synoviocyte.
# (§2) Employ the method provided in Reference to investigate the effects of the test compounds on the synoviocyte to secrete TNF-α and PGE2. Employ the method provided in Reference to investigate the effects of the test compounds on the synoviocyte to secrete IL-1β.
# (§3) The experimental data of the test compound 1-50 at a dose of 30 mg/kg.2d as well as the normal control and NaCl group are as follows: […]
# cancer stem cells = assay: Survival rate of cancer stem cells after test compound is added (flow cytometry, Annexin V-FITC/PI, clinical specimen); type: cell-based, patient
# Source text: (§4) Take fresh or cryopreserved clinical specimen (acute myelogenous leukemia (AML, marker is CD34^+/CD38^+), chronic myelogenous leukemia (CML, Ph+/CD34+/CXCR4+), chronic lymphocytic leukemia (CLL,CD133+/CD19−/CD38−), skin cancer (CD34+), breast cancer (CD44+/CD24−/ESA+), ovarian cancer (CD44+/CD117+), brain tumor (CD133+) prostate cancer (CD44+/CD24−), head-neck squamous cell carcinoma (CD44+), laryngeal cancer (CD133+), pancreatic cancer (ESA+/CD44+/CD24+), retinoblastoma (ABCG2/ALDH1), Children hepatoblastoma (CD34+/THY1+/c-kit+), liver cancer (CD133+), malignant melanoma (CD133+), colorectal cancer (EpCAM^high/CD44+), colon adenocarcinoma (CD44^high), glioma (ABCG-2/BCRP1), gastrointestinal tumor (ABCG-2/BCRP1), nasopharynx cancer (ABCG2), brain glioma (Dlk-1/Pref-1), gastric cancer (CD45+), lung adenocarcinoma (Sca-1/CD45-/Pecam-/CD34+), lung cancer (CD133+CD34+CD44+)) of patient. Take the acute myelogenous leukemia as the example, conduct density gradient centrifugation with Ficoll and take out the middle mononuclear cells, re-suspend it with serum-free IMDM after centrifuged. Adjust the concentration of cells into 1×10^6/mL and lay 24-well plate with 1 mL in each well, and then treat 18 hours with the compound to select with corresponding concentration. Collect the cells and centrifuge them at 1500 rps for 8 minutes, re-suspend the precipitation with […], mark the antibodies related to leukemia stem cell, avoid light to incubate 30 minutes at room temperature and then centrifuge it at 1500 rps, then wash away the unbound antibody CD34^+CD38^+. Re-suspend it with 100 μl 1× Binding Buffer and add respectively 5 μl Annexin V-FITC and PI, then avoid light to incubate 15 minutes before add 200 μl 1× Binding Buffer, then use flow cytometry to examine the marked apoptosis within one hour.
# cancer cells = assay: Survival rate of cancer cells after test compound is added (flow cytometry, Annexin V-FITC/PI, clinical specimen); type: cell-based, patient
# Source text: as §4
# [2] = test system: TNF-α secreted by synoviocyte; assay: Content of TNF-α in culture supernatant of synoviocyte of RA model rats given test compound; type: in vivo; conditions: rat RA model, dose 30 mg/kg.2d; normal control 0.38 ± 0.027, NaCl 0.74 ± 0.098
# Source text: as §1, §2, §3
# [3] = test system: PGE2 secreted by synoviocyte; assay: Content of PGE2 in culture supernatant of synoviocyte of RA model rats given test compound; type: in vivo; conditions: rat RA model, dose 30 mg/kg.2d; normal control 8.34 ± 1.29, NaCl 32.44 ± 10.32
# Source text: as §1, §2, §3
# normal cells = assay: Survival rate of normal cells after test compound is added (flow cytometry, Annexin V-FITC/PI); type: cell-based
# Source text: as §4
# [4] = Children hepatoblastoma, 10.0 μM
# [5] = Children hepatoblastoma, 20.0 μM
# [6] = Gastrointestinal tumor, 10.0 μM
# [7] = Gastrointestinal tumor, 20.0 μM
# [8] = Head and neck squamous cell carcinomas, 10.0 μM
# [9] = Head and neck squamous cell carcinomas, 20.0 μM
smiles,measurement,setting,value
CN(C)C[C@@H]1C(=O)O[C@H]2[C@H]1CCC1(CC1)[C@@H]1CCC3(CC3)[C@H]21.Cl [Compound 28],Content of IL-1β in culture supernatant of synoviocyte (x ± s),[1],0.31 ± 0.067 ng/mL
same,Survival rate (%) Stem cells,"cancer stem cells; AML, 10.0 μM",87%
same,Survival rate (%) Stem cells,"cancer stem cells; AML, 20.0 μM",76%
same,Survival rate (%) Stem cells,"cancer stem cells; Brain glioma, 10.0 μM",82%
same,Survival rate (%) Stem cells,"cancer stem cells; Brain glioma, 20.0 μM",76%
same,Survival rate (%) Stem cells,"cancer stem cells; Brain tumor, 10.0 μM",82%
same,Survival rate (%) Stem cells,"cancer stem cells; Brain tumor, 20.0 μM",73%
same,Survival rate (%) Stem cells,"cancer stem cells; Breast cancer, 10.0 μM",81%
same,Survival rate (%) Stem cells,"cancer stem cells; Breast cancer, 20.0 μM",75%
same,Survival rate (%) Stem cells,"cancer stem cells; CLL, 10.0 μM",82%
same,Survival rate (%) Stem cells,"cancer stem cells; CLL, 20.0 μM",73%
same,Survival rate (%) Stem cells,"cancer stem cells; CML, 10.0 μM",85%
same,Survival rate (%) Stem cells,"cancer stem cells; CML, 20.0 μM",77%
same,Survival rate (%) Stem cells,cancer stem cells; [4],85%
same,Survival rate (%) Stem cells,cancer stem cells; [5],77%
same,Survival rate (%) Stem cells,"cancer stem cells; Colon adenocarcinoma, 10.0 μM",82%
same,Survival rate (%) Stem cells,"cancer stem cells; Colon adenocarcinoma, 20.0 μM",74%
same,Survival rate (%) Stem cells,"cancer stem cells; Colorectal cancer, 10.0 μM",81%
same,Survival rate (%) Stem cells,"cancer stem cells; Colorectal cancer, 20.0 μM",75%
same,Survival rate (%) Stem cells,"cancer stem cells; Gastric cancer, 10.0 μM",79%
same,Survival rate (%) Stem cells,"cancer stem cells; Gastric cancer, 20.0 μM",72%
same,Survival rate (%) Stem cells,cancer stem cells; [6],82%
same,Survival rate (%) Stem cells,cancer stem cells; [7],76%
same,Survival rate (%) Stem cells,"cancer stem cells; Glioma, 10.0 μM",85%
same,Survival rate (%) Stem cells,"cancer stem cells; Glioma, 20.0 μM",79%
same,Survival rate (%) Stem cells,cancer stem cells; [8],81%
same,Survival rate (%) Stem cells,cancer stem cells; [9],75%
same,Survival rate (%) Stem cells,"cancer stem cells; Laryngeal cancer, 10.0 μM",85%
same,Survival rate (%) Stem cells,"cancer stem cells; Laryngeal cancer, 20.0 μM",77%
same,Survival rate (%) Stem cells,"cancer stem cells; Liver cancer, 10.0 μM",82%
same,Survival rate (%) Stem cells,"cancer stem cells; Liver cancer, 20.0 μM",73%
same,Survival rate (%) Stem cells,"cancer stem cells; Lung adenocarcinoma, 10.0 μM",88%
same,Survival rate (%) Stem cells,"cancer stem cells; Lung adenocarcinoma, 20.0 μM",81%
same,Survival rate (%) Stem cells,"cancer stem cells; Lung cancer, 10.0 μM",87%
same,Survival rate (%) Stem cells,"cancer stem cells; Lung cancer, 20.0 μM",76%
same,Survival rate (%) Stem cells,"cancer stem cells; Malignant melanoma, 10.0 μM",84%
same,Survival rate (%) Stem cells,"cancer stem cells; Malignant melanoma, 20.0 μM",78%
same,Survival rate (%) Stem cells,"cancer stem cells; Nasopharynx cancer, 10.0 μM",85%
same,Survival rate (%) Stem cells,"cancer stem cells; Nasopharynx cancer, 20.0 μM",77%
same,Survival rate (%) Stem cells,"cancer stem cells; Ovarian cancer, 10.0 μM",85%
same,Survival rate (%) Stem cells,"cancer stem cells; Ovarian cancer, 20.0 μM",79%
same,Survival rate (%) Stem cells,"cancer stem cells; Pancreatic cancer, 10.0 μM",86%
same,Survival rate (%) Stem cells,"cancer stem cells; Pancreatic cancer, 20.0 μM",78%
same,Survival rate (%) Stem cells,"cancer stem cells; Prostate cancer, 10.0 μM",84%
same,Survival rate (%) Stem cells,"cancer stem cells; Prostate cancer, 20.0 μM",78%
same,Survival rate (%) Stem cells,"cancer stem cells; Retinoblastoma, 10.0 μM",84%
same,Survival rate (%) Stem cells,"cancer stem cells; Retinoblastoma, 20.0 μM",80%
same,Survival rate (%) Stem cells,"cancer stem cells; Skin cancer, 10.0 μM",84%
same,Survival rate (%) Stem cells,"cancer stem cells; Skin cancer, 20.0 μM",78%
same,Survival rate (%) All cells (Stem cells and ordinary cells),"cancer cells; AML, 10.0 μM",94%
same,Survival rate (%) All cells (Stem cells and ordinary cells),"cancer cells; AML, 20.0 μM",87%
same,Survival rate (%) All cells (Stem cells and ordinary cells),"cancer cells; Brain glioma, 10.0 μM",89%
same,Survival rate (%) All cells (Stem cells and ordinary cells),"cancer cells; Brain glioma, 20.0 μM",86%
same,Survival rate (%) All cells (Stem cells and ordinary cells),"cancer cells; Brain tumor, 10.0 μM",91%
same,Survival rate (%) All cells (Stem cells and ordinary cells),"cancer cells; Brain tumor, 20.0 μM",87%
same,Survival rate (%) All cells (Stem cells and ordinary cells),"cancer cells; Breast cancer, 10.0 μM",87%
same,Survival rate (%) All cells (Stem cells and ordinary cells),"cancer cells; Breast cancer, 20.0 μM",83%
same,Survival rate (%) All cells (Stem cells and ordinary cells),"cancer cells; CLL, 10.0 μM",91%
same,Survival rate (%) All cells (Stem cells and ordinary cells),"cancer cells; CLL, 20.0 μM",87%
same,Survival rate (%) All cells (Stem cells and ordinary cells),"cancer cells; CML, 10.0 μM",92%
same,Survival rate (%) All cells (Stem cells and ordinary cells),"cancer cells; CML, 20.0 μM",89%
same,Survival rate (%) All cells (Stem cells and ordinary cells),cancer cells; [4],92%
same,Survival rate (%) All cells (Stem cells and ordinary cells),cancer cells; [5],89%
same,Survival rate (%) All cells (Stem cells and ordinary cells),"cancer cells; Colon adenocarcinoma, 10.0 μM",88%
same,Survival rate (%) All cells (Stem cells and ordinary cells),"cancer cells; Colon adenocarcinoma, 20.0 μM",85%
same,Survival rate (%) All cells (Stem cells and ordinary cells),"cancer cells; Colorectal cancer, 10.0 μM",87%
same,Survival rate (%) All cells (Stem cells and ordinary cells),"cancer cells; Colorectal cancer, 20.0 μM",83%
same,Survival rate (%) All cells (Stem cells and ordinary cells),"cancer cells; Gastric cancer, 10.0 μM",88%
same,Survival rate (%) All cells (Stem cells and ordinary cells),"cancer cells; Gastric cancer, 20.0 μM",81%
same,Survival rate (%) All cells (Stem cells and ordinary cells),cancer cells; [6],88%
same,Survival rate (%) All cells (Stem cells and ordinary cells),cancer cells; [7],89%
same,Survival rate (%) All cells (Stem cells and ordinary cells),"cancer cells; Glioma, 10.0 μM",93%
same,Survival rate (%) All cells (Stem cells and ordinary cells),"cancer cells; Glioma, 20.0 μM",86%
same,Survival rate (%) All cells (Stem cells and ordinary cells),cancer cells; [8],87%
same,Survival rate (%) All cells (Stem cells and ordinary cells),cancer cells; [9],83%
same,Survival rate (%) All cells (Stem cells and ordinary cells),"cancer cells; Laryngeal cancer, 10.0 μM",92%
same,Survival rate (%) All cells (Stem cells and ordinary cells),"cancer cells; Laryngeal cancer, 20.0 μM",89%
same,Survival rate (%) All cells (Stem cells and ordinary cells),"cancer cells; Liver cancer, 10.0 μM",91%
same,Survival rate (%) All cells (Stem cells and ordinary cells),"cancer cells; Liver cancer, 20.0 μM",87%
same,Survival rate (%) All cells (Stem cells and ordinary cells),"cancer cells; Lung adenocarcinoma, 10.0 μM",91%
same,Survival rate (%) All cells (Stem cells and ordinary cells),"cancer cells; Lung adenocarcinoma, 20.0 μM",89%
same,Survival rate (%) All cells (Stem cells and ordinary cells),"cancer cells; Lung cancer, 10.0 μM",94%
same,Survival rate (%) All cells (Stem cells and ordinary cells),"cancer cells; Lung cancer, 20.0 μM",87%
same,Survival rate (%) All cells (Stem cells and ordinary cells),"cancer cells; Malignant melanoma, 10.0 μM",91%
same,Survival rate (%) All cells (Stem cells and ordinary cells),"cancer cells; Malignant melanoma, 20.0 μM",88%
same,Survival rate (%) All cells (Stem cells and ordinary cells),"cancer cells; Nasopharynx cancer, 10.0 μM",92%
same,Survival rate (%) All cells (Stem cells and ordinary cells),"cancer cells; Nasopharynx cancer, 20.0 μM",89%
same,Survival rate (%) All cells (Stem cells and ordinary cells),"cancer cells; Ovarian cancer, 10.0 μM",88%
same,Survival rate (%) All cells (Stem cells and ordinary cells),"cancer cells; Ovarian cancer, 20.0 μM",85%
same,Survival rate (%) All cells (Stem cells and ordinary cells),"cancer cells; Pancreatic cancer, 10.0 μM",93%
same,Survival rate (%) All cells (Stem cells and ordinary cells),"cancer cells; Pancreatic cancer, 20.0 μM",92%
same,Survival rate (%) All cells (Stem cells and ordinary cells),"cancer cells; Prostate cancer, 10.0 μM",91%
same,Survival rate (%) All cells (Stem cells and ordinary cells),"cancer cells; Prostate cancer, 20.0 μM",88%
same,Survival rate (%) All cells (Stem cells and ordinary cells),"cancer cells; Retinoblastoma, 10.0 μM",90%
same,Survival rate (%) All cells (Stem cells and ordinary cells),"cancer cells; Retinoblastoma, 20.0 μM",85%
same,Survival rate (%) All cells (Stem cells and ordinary cells),"cancer cells; Skin cancer, 10.0 μM",91%
same,Survival rate (%) All cells (Stem cells and ordinary cells),"cancer cells; Skin cancer, 20.0 μM",88%
same,Content of TNF-α in culture supernatant of synoviocyte (x ± s),[2],0.47 ± 0.056 ng/mL
same,Content of PGE2 in culture supernatant of synoviocyte (x ± s),[3],18.92 ± 1.98 ng/mL
same,Survival rate (%) All cells (Stem cells and ordinary cells),normal cells; 10.0 μM,96%
same,Survival rate (%) Stem cells,normal cells; 10.0 μM,94%
same,Survival rate (%) All cells (Stem cells and ordinary cells),normal cells; 20.0 μM,95%
same,Survival rate (%) Stem cells,normal cells; 20.0 μM,92%
